Columns and labels:
[1] = In vitro (phantom) quantitative T2 mapping at 7T, spin-spin relaxation contrast
Description: Data are provided from quantitative T2 mapping at 7T using a RARE FSE protocol with at least 6 different echo times, at solute concentrations of 10 and 20 mM.

[2] = T2 contrast changes in guinea pig brain at 7T after i.v. ascorbate formulations; type: in vivo, guinea pigs; details: 2 g/kg over 60 min slow infusion
[3] = physiological pH of 7.4; cited from earlier work
[4] = Ascorbate T2 enhancement in rodent model of neocortical spreading depression; type: in vivo; details: slices 3 and 4 mm anterior to bregma, KCl-induced SD in right hemisphere
From the text: FIG. 10. […] The craniectomy site is 1 mm posterior to bregma, a skull landmark representing the posterior third of the underlying brain. The above two rows show T2 images and quantitative color lute T2 maps of signal change in rodent brain that are 3 and 4 mm anterior to bregma, that is, distant from the SD induction site. […] These marked cortical signal changes are consistent with the known hypermetabolic activity that occurs with SD, as also observed with ^18F-FDG PET, and with direct microdialysis and metabolomic determinations.
Spreading depression (SD) is an experimentally reproducible pathophysiological phenomenon of CNS tissues originally described 60 years ago by Loao. After a focal region of cortex reaches a critical threshold of ionic perturbation, a massive spreading wave of cellular depolarization may begin and spread through gray matter tissue, but remain confined to the gray matter zone in which it was induced, not crossing white matter pathways. […]
The craniectomy site is 1 mm posterior to bregma, a skull landmark representing the posterior third of the underlying brain. The above two rows show T2 images and quantitiative color lute T2 maps of signal change in rodent brain that are 3 and 4 mm anterior to bregma, that is, distant from the SD induction site. […]

[5] = Perfusion and viability cardiac imaging with parenteral ascorbate at 7T; type: in vivo; details: initial i.v. bolus, rat heart
Description: FIGS. 11A-11B. Perfusion and viability cardiac imaging with parenteral ascorbate. FIG. 11A depicts the two primary imaging planes, coronal and axial, for rat heart imaging at 7T.
Perfusion and viability cardiac imaging with parenteral ascorbate was assessed. FIG. 11A, depicts the two primary imaging planes, coronal and axial, for rat heart imaging at 7T. Retrospective gating with respiratory coupling was employed to collect images at 7T. The acquisition sequence is moderately T2-weighted and can be further optimized to enhance the contrast effect.

[6] = oral, even at doses more than 100 times the recommended daily allowance; cited from earlier work

Compound	T2 contrast effect (T2 relaxation in ms) relative to meglumine or ascorbate alone ([1]; 10 mM, water, neutral pH, FIG. 3D)	FSE T2 images before and after infusion [2]	fraction present as mono anion [3] [%]	change in T2 relaxation ([1]; 10 mM ascorbate with physiological glucose (5 mM) or HCO3- (25 mM), pH 7.0) [%]	pH at which the T2 effect is maximized ([1]; phantoms, FIG. 3C)	lowest concentration with statistically significant negative T2 contrast (signal loss) ([1]; vs control (phosphate-buffered saline), conventional FSE acquisition) [mM]	effect of H2O2 on ascorbate T2 enhancement ([1]; μM H2O2, phantoms, FIG. 3B)	T2 signal change in cerebral cortex [4]	T2 signal intensity in left ventricle [5]	plasma concentration [6] [µM]
meglumine ascorbate	approximately 4 times	–	–	–	–	–	–	–	–	–
O=C1O[C@H]([C@@H](O)CO)C(O)=C1O [ascorbate, L-ascorbic acid]	–	dramatic signal intensity differences throughout the brain parenchyma	99	50	7.0-7.4	1 to 5	marked synergism	clear T2 asymmetry in the right cerebral cortex as compared to the left	transient decrease in T2 signal intensity throughout the left ventricle	≤ 200
